Test results as given in US10377774B2 (JINAN UNIVERSITY, priority 2013, dated 2019).
Marks after values point to notes of the source that are not given here.

Tests used:
Kunming mice = assay: Acute toxicity test; type: in vivo; conditions: injected intraperitoneally
Protocol: Experimental method: Kunming mice were purchased from Guangdong Medical Experimental Animal Center, weighing 18-22 g, then randomly divided into several groups with 10 mice in each group. Different concentrations of VLB and vinca alkaloid dipeptide derivatives were injected intraperitoneally. Finally, the median lethal dose (LD50) was calculated according to the surviving animals.
LD50 was measured using the following formula:
LD50 (mg/kg)=The median lethal dose/body weight

[1] = system: doxorubicin-resistant hepatocellular carcinoma cell line HepG2/ADM; assay: MTT cell growth inhibition, HepG2/ADM; type: cell-based, human; conditions: MTT assay, 72 h, read-out: IC50, growth of tumor cell line
Excerpt: (§3) Experimental method: Cell lines (human non-small-cell lung cancer cell line A549, human colon cancer cell line LOVO, human nasopharyngeal carcinoma cell line CNE-2, human liver cancer cell line HepG2, human cervical carcinoma cell line Hela, human breast cancer cell lines MCF-7 and MDA-MB-231, human gastric carcinoma cell line NCI-N87, human prostatic cancer cell lines PC-3 and DU145, human leukemia cell line K562, human melanoma cell line A375, human neuroblastoma cell line SH-SY5H, human promyelocytic leukemia cell line HL-60, 5-FU-resistant human hepatocellular carcinoma cell line BEL-7402/5-Fu, doxorubicin-resistant hepatocellular carcinoma cell line HepG2/ADM, doxorubicin-resistant human breast cancer cell lines MCF-7/ADR) at logarithmic phase were resuspended in RPMI 1640 medium (containing 10% fetal bovine serum, 100 U/mL penicillin-streptomycin). Then, 100 μL of cells (cell concentration was 5×10^5/mL) were seeded into 96 wells plate. After 24 h incubation at 37° C. with 5% CO2, tested compounds were added (the control group without compound) for an additional 72 h incubation. After that, 30 μL of MTT [3-(4,5-Dimethylthiazol-2-yl)-2,5-diphenyltetrazolium bromide] solution (5 mg/mL) was added into each well and incubated for another 4 h at 37° C. and then the formazan crystals were solubilized with 100 μL DMSO. Finally, absorbance of each well was determined at 570 nm by a microplate reader (Thermo).
(§4) The concentration required to inhibit cell growth by 50% (IC50) was calculated from survival curves.

HepG2 xenografts = HepG2 xenografts in nude mice; type: in vivo; conditions: HepG2 xenograft nude mice; for Anti-tumor rate (%) / Body weight (g) Post-dose / Tumor weight: 1 mg/kg; for Body weight (g) Pre-dose: before dosing
Protocol: (§1) Experimental method: The MDA-MB-231 cells at logarithmic phase were digested and washed twice with PBS. Then, 100 μL cells (1×10^7) were inoculated subcutaneously on the backs of female BALB/nu/nu mice. After tumors grew to 70˜100 mm^3, the mice were divided randomly into saline group (control group), vinca alkaloids groups (VLB, CCRB, CCFN, CCXJ) and vinca alkaloid derivatives groups (JJ-CCJ, BX-CCJ, JJ-CCRB, BX-CCRB, JJ-CCFN, BX-CCFN, JJ-CCXJ and BX-CCXJ), with six mice per group. 1 mg/kg drugs were injected intraperitoneally every two days, meanwhile body weight and tumor sizes were measured. Experiment was ended after 8 times of drug administration, then tumor and organs were stripped. Tumor volumes were measured using the following formula: V=½(ab^2), whereas a refers to the longest diameter and b is the shortest diameter.
(§2) Tumor xenograft models of HepG2, LOVO, K562 and HL-60 cell lines were performed as the method described above.

[2] = system: human neuroblastoma cell line SH-SY5H; assay: MTT cell growth inhibition, SH-SY5H; type: cell-based; conditions: MTT assay, 72 h, read-out: IC50, growth of tumor cell line
HL-60 xenografts = HL-60 xenografts in nude mice; type: in vivo; conditions: HL-60 xenograft nude mice; for Anti-tumor rate (%) / Body weight (g) Post-dose / Tumor weight: 1 mg/kg; for Body weight (g) Pre-dose: before dosing
Protocol: as §1, §2

[3] = system: human leukemia cell line K562; assay: MTT cell growth inhibition, K562; type: cell-based; conditions: K562, MTT assay, 72 h; read-out: IC50, growth of tumor cell line
Excerpt: as §3, §4

[4] = system: human umbilical vein endothelial cells HUVEC; assay: MTT cytotoxicity on normal cells, HUVEC; conditions: read-out: IC50, cytotoxicity on normal cell line; HUVEC, MTT assay
K562 xenografts = K562 xenografts in nude mice; type: in vivo; conditions: K562 xenograft nude mice; for Anti-tumor rate (%) / Body weight (g) Post-dose / Tumor weight: 1 mg/kg; for Body weight (g) Pre-dose: before dosing
Protocol: as §1, §2

[5] = system: human colon cancer cell line LOVO; assay: MTT cell growth inhibition, LOVO; type: cell-based; conditions: LOVO (FAPα positive), MTT assay, 72 h; read-out: IC50, growth of tumor cell line
Excerpt: as §3, §4

[6] = system: human prostatic cancer cell line DU145; assay: MTT cell growth inhibition, DU-145; type: cell-based; conditions: DU-145, MTT assay, 72 h; read-out: IC50, growth of tumor cell line
Excerpt: as §3, §4

MDA-MB-231 xenografts = MDA-MB-231 xenografts in nude mice; type: in vivo, BALB/nu/nu mice; conditions: MDA-MB-231 xenograft nude mice; for Anti-tumor rate (%) / Body weight (g) Post-dose / Tumor weight: 1 mg/kg i.p. every two days, 8 administrations; for Body weight (g) Pre-dose: before dosing
Protocol: as §1

[7] = system: human normal liver cells LO2; assay: MTT cytotoxicity on normal cells, LO2; conditions: read-out: IC50, cytotoxicity on normal cell line; LO2, MTT assay
Protocol: Then, 100 μL of cells (cell concentration was 5×10^5/mL) were seeded into 96 wells plate. After 24 h incubation at 37° C. with 5% CO2, tested compounds were added (the control group without compound) for an additional 72 h incubation. After that, 30 μL of MTT [3-(4,5-Dimethylthiazol-2-yl)-2,5-diphenyltetrazolium bromide] solution (5 mg/mL) was added into each well and incubated for another 4 h at 37° C. and then the formazan crystals were solubilized with 100 μL DMSO. Finally, absorbance of each well was determined at 570 nm by a microplate reader (Thermo).
The standard curve was drew with compound concentrations as the abscissa and cell growth inhibition rates as the ordinate. The concentration required to inhibit cell growth by 50% (IC50) was calculated from survival curves.
Experimental method: In vitro cytotoxicities of vinca alkaloids, hydrazinolyzed vinca alkaloids and vinca alkaloid dipeptide derivatives on human normal liver cells LO2 and human umbilical vein endothelial cells HUVEC were detected according to the method of Example 2.

LOVO xenografts = LOVO xenografts in nude mice; type: in vivo; conditions: LOVO xenograft nude mice; for Anti-tumor rate (%) / Body weight (g) Post-dose / Tumor weight: 1 mg/kg; for Body weight (g) Pre-dose: before dosing
Protocol: as §1, §2

[8] = system: human cervical carcinoma cell line Hela; assay: MTT cell growth inhibition, Hela; type: cell-based; conditions: MTT assay, 72 h, read-out: IC50, growth of tumor cell line
Excerpt: as §3, §4

[9] = system: human breast cancer cell line MDA-MB-231; assay: MTT cell growth inhibition, MDA-MB-231; type: cell-based; conditions: MDA-MB-231, MTT assay, 72 h; read-out: IC50, growth of tumor cell line
[10] = system: 5-FU-resistant human hepatocellular carcinoma cell line BEL-7402/5-Fu; assay: MTT cell growth inhibition, BEL-7402/5-Fu; type: cell-based; conditions: MTT assay, 72 h, read-out: IC50, growth of tumor cell line
Excerpt: as §3, §4

[11] = system: human gastric carcinoma cell line NCI-N87; assay: MTT cell growth inhibition, NCI-N87; type: cell-based; conditions: NCI-N87, MTT assay, 72 h; read-out: IC50, growth of tumor cell line
Excerpt: as §3, §4

[12] = system: human non-small-cell lung cancer cell line A549; assay: MTT cell growth inhibition, A549; type: cell-based; conditions: A549, MTT assay, 72 h; read-out: IC50, growth of tumor cell line
[13] = system: human nasopharyngeal carcinoma cell line CNE-2; assay: MTT cell growth inhibition, CNE-2; type: cell-based; conditions: CNE-2, MTT assay, 72 h; read-out: IC50, growth of tumor cell line
Excerpt: as §3, §4

[14] = system: human liver cancer cell line HepG2; assay: MTT cell growth inhibition, HepG2; type: cell-based; conditions: HepG2, MTT assay, 72 h; read-out: IC50, growth of tumor cell line
[15] = system: human melanoma cell line A375; assay: MTT cell growth inhibition, A375; type: cell-based; conditions: A375, MTT assay, 72 h; read-out: IC50, growth of tumor cell line
Excerpt: as §3, §4

[16] = system: human promyelocytic leukemia cell line HL-60; assay: MTT cell growth inhibition, HL-60; type: cell-based; conditions: HL-60, MTT assay, 72 h; read-out: IC50, growth of tumor cell line
[17] = system: human breast cancer cell line MCF-7; assay: MTT cell growth inhibition, MCF-7; type: cell-based; conditions: MCF-7, MTT assay, 72 h; read-out: IC50, growth of tumor cell line
Excerpt: as §3, §4

[18] = system: human prostatic cancer cell line PC-3; assay: MTT cell growth inhibition, PC-3; type: cell-based; conditions: PC-3, MTT assay, 72 h; read-out: IC50, growth of tumor cell line
Excerpt: as §3, §4

[19] = system: doxorubicin-resistant human breast cancer cell lines MCF-7/ADR; assay: MTT cell growth inhibition, MCF-7/ADR; type: cell-based; conditions: MTT assay, 72 h, read-out: IC50, growth of tumor cell line

| SMILES | LD50 (median lethal dose) (Kunming mice) | IC50 [1] | Anti-tumor rate (%) (HepG2 xenografts) | Body weight (g) Post-dose (HepG2 xenografts) | Tumor weight (HepG2 xenografts) | Body weight (g) Pre-dose (HepG2 xenografts) | IC50 [2] | Anti-tumor rate (%) (HL-60 xenografts) | Body weight (g) Post-dose (HL-60 xenografts) | Tumor weight (HL-60 xenografts) | Body weight (g) Pre-dose (HL-60 xenografts) | IC50 [3] | IC50 [4] | Anti-tumor rate (%) (K562 xenografts) | Body weight (g) Post-dose (K562 xenografts) | Tumor weight (K562 xenografts) | Body weight (g) Pre-dose (K562 xenografts) | IC50 [5] | IC50 [6] | Anti-tumor rate (%) (MDA-MB-231 xenografts) | also measured |
| --- | --- | --- | --- | --- | --- | --- | --- | --- | --- | --- | --- | --- | --- | --- | --- | --- | --- | --- | --- | --- | --- |
| CCC1=CC2CN(C1)Cc1c([nH]c3ccccc13)C(C(=O)OC)(c1cc3c(cc1OC)N(C)C1C(O)(C(=O)NNC(=O)C4CCCN4C(=O)CNC(=O)OCc4ccccc4)C(O)C4(CC)C=CCN5CCC31C54)C2 (stereo not shown) [BX-CCRB, Z-GP-NHNH-Vinorelbine] | 12 mg/kg | 437 ± 14.4 nM | 85.49** % | 22.6 ± 0.5 g | 0.37 ± 0.09 g | 22.2 ± 1.5 g | 166 ± 15.6 nM | 74.52** % | 19.2 ± 1.3 g | 0.53 ± 0.28 g | 19.0 ± 1.2 g | 109 ± 4.66 nM | 167 ± 8.87 nM | 72.62** % | 23.4 ± 1.2 g | 0.46 ± 0.29 g | 22.1 ± 0.5 g | 123 ± 11.4 nM | 219 ± 6.29 nM | 85.83** % | Body weight (g) Post-dose (MDA-MB-231 xenografts): 20.1 ± 0.9 g; Tumor weight (MDA-MB-231 xenografts): 0.37 ± 0.07 g; Body weight (g) Pre-dose (MDA-MB-231 xenografts): 19.1 ± 1.7 g; IC50 [7]: 183 ± 5.51 nM; Anti-tumor rate (%) (LOVO xenografts): 80.14** %; Body weight (g) Post-dose (LOVO xenografts): 24.1 ± 2.3 g; Tumor weight (LOVO xenografts): 0.57 ± 0.23 g; Body weight (g) Pre-dose (LOVO xenografts): 23.6 ± 1.2 g; IC50 [8]: 182 ± 2.36 nM; IC50 [9]: 181 ± 8.1 nM; IC50 [10]: 325 ± 11.7 nM; IC50 [11]: 244 ± 9.33 nM; IC50 [12]: 115 ± 5.23 nM; IC50 [13]: 210 ± 5.78 nM; IC50 [14]: 167 ± 4.37 nM; IC50 [15]: 120 ± 14.5 nM; IC50 [16]: 208 ± 18.4 nM; IC50 [17]: 238 ± 8.37 nM; IC50 [18]: 269.8 ± 2.03 nM |
| CCC1(O)CC2CN(CCc3c([nH]c4ccccc34)C(C(=O)OC)(c3cc4c(cc3OC)N(C=O)C3C(O)(C(=O)NNC(=O)C5CCCN5C(=O)CNC(=O)OCc5ccccc5)C(O)C5(CC)C=CCN6CCC43C65)C2)C1 (stereo not shown) [BX-CCXJ, Z-GP-NHNH-Vincristine] | 10 mg/kg | 135 ± 5.54 nM | 88.63** % | 21.9 ± 2.1 g | 0.29 ± 0.13 g | 22.2 ± 1.2 g | 61.7 ± 6.14 nM | 72.12** % | 19.7 ± 0.9 g | 0.58 ± 0.17 g | 19.3 ± 1.1 g | 44.9 ± 3.28 nM | 176 ± 5.51 nM | 75.00** % | 22.5 ± 1.1 g | 0.42 ± 0.14 g | 21.2 ± 0.9 g | 24.9 ± 1.78 nM | 76.9 ± 4.55 nM | 91.18** % | Body weight (g) Post-dose (MDA-MB-231 xenografts): 21.9 ± 2.9 g; Tumor weight (MDA-MB-231 xenografts): 0.23 ± 0.09 g; Body weight (g) Pre-dose (MDA-MB-231 xenografts): 19.5 ± 1.4 g; IC50 [19]: 169 ± 5.67 nM; IC50 [7]: 101 ± 9.02 nM; Anti-tumor rate (%) (LOVO xenografts): 79.45** %; Body weight (g) Post-dose (LOVO xenografts): 24.2 ± 1.7 g; Tumor weight (LOVO xenografts): 0.59 ± 0.33 g; Body weight (g) Pre-dose (LOVO xenografts): 23.8 ± 1.0 g; IC50 [8]: 55.3 ± 1.9 nM; IC50 [9]: 57.3 ± 3.36 nM; IC50 [10]: 326 ± 13.3 nM; IC50 [11]: 43.2 ± 3.53 nM; IC50 [12]: 47.7 ± 2.64 nM; IC50 [13]: 40.1 ± 2.09 nM; IC50 [14]: 33.4 ± 2.01 nM; IC50 [15]: 54.8 ± 8.41 nM; IC50 [16]: 72.8 ± 4.59 nM; IC50 [17]: 73.2 ± 3.66 nM; IC50 [18]: 88.9 ± 6.84 nM |
